Data on one compound can be found in paper PMC7357868 (ACS chemical biology, 2019).

For the assay, the target named is T1, hpol κ (Homo sapiens, UniProt Q9UBT6).
T1 sequence (Q9UBT6 19-526): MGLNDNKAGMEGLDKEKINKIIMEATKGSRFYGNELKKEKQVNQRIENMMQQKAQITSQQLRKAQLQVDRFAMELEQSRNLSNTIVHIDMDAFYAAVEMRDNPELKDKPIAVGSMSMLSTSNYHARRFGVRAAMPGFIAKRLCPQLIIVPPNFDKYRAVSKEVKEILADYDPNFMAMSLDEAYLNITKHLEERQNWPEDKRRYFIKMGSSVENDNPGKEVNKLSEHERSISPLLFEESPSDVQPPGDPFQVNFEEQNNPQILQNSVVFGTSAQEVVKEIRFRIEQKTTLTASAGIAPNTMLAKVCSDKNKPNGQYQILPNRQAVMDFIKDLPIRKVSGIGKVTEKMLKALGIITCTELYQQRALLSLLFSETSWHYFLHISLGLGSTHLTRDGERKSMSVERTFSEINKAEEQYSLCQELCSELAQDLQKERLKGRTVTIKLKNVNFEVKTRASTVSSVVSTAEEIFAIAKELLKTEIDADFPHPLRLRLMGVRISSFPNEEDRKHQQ
As to the kind of experiment: Steady-state kinetic analysis of dTTP insertion. Format: biochemical. Particulars: 0.5 nM hpol κ, 25 nM DNA, varying inhibitor concentration.

`Cl.[H]/N=C(\N)NN=Cc1cn(C(=O)c2cccc3ccccc23)c2ccc(Cl)cc12` [IAG-10, (E)-2-((1-(1-naphthoyl)-5-chloro-1H-indol-3-yl)-methylene)hydrazine-1-carboximidamide hydrochloride]: the “effect on turnover number (kcat)” value was “sharp decrease”.
